This passage reports cytotoxicity results from US6599932B1, “Alpha, beta-unsaturated sulfones for treating proliferative disorders” (Temple University-Of The Commonwealth System of Higher …, priority 2000, dated 2003).

A value given as a limit tells only on which side of the number the result lay.

What all share (format): cell-based
What all share (design): dose or concentration left out as unconfirmed

Experiment [1] relates to prostate tumor cell line DU-145. In words: Viability assay, Trypan blue exclusion, prostate tumor cell line DU-145. As to conditions: Homo sapiens, DU-145, 96 hours, read-out: percent cell death (% Death), DU145. The procedure: (§1) The effect of the sulfones on normal fibroblasts and on tumor cells of prostate, colon, lung and breast origin was examined utilizing the following cell lines: prostate tumor cell line DU-145; colorectal carcinoma cell line DLD-1; non-small cell lung carcinoma cell line H157; and breast tumor cell line BT-20. BT-20 is an estrogen-unresponsive cell line. NIH/3T3 and HFL are normal murine and human fibroblasts, respectively. BT-20, DLD-1 and H157 were grown in Dulbecco's modified Eagle's medium (DMEM) containing 10% fetal bovine serum supplemented with penicillin and streptomycin. DU145 was cultured in RPMI with 10% fetal bovine serum containing penicillin and streptomycin. NIH3T3 and HFL cells were grown in DMEM containing 10% calf serum supplemented with penicillin and streptomycin. All cell cultures were maintained at 37° C. in a humidified atmosphere of 5% CO2.
(§2) Cells were treated with test compound […] concentration and cell viability was determined after 96 hours by the Trypan blue exclusion method. Activity for each compound is reported as a range of cell induced death (% Death) with the lowest activity in the range of 5-10%.

In experiment [2] the test system is colorectal carcinoma cell line DLD-1. The experiment in a line: Viability assay, Trypan blue exclusion, colorectal carcinoma cell line DLD-1. As to conditions: Homo sapiens, DLD-1, 96 hours, read-out: percent cell death (% Death), DLD-1. As to the method: as §1, §2
Experiment [3] has as its system non-small cell lung carcinoma cell line H157. In words: Viability assay, Trypan blue exclusion, non-small cell lung carcinoma cell line H157. As to conditions: Homo sapiens, NCI-H157, 96 hours, read-out: percent cell death (% Death), H157. As to the method:
as §1, §2

Experiment [4] relates to breast tumor cell line BT-20. In words: Viability assay, Trypan blue exclusion, breast tumor cell line BT-20. As to conditions: Homo sapiens, BT-20, 96 hours, read-out: percent cell death (% Death), BT20. The procedure:
as §1, §2

`O=S(=O)(/C=C/c1ccc(F)cc1)Cc1cccc2ccccc12` [Example 68, (E)-4-Fluorostyryl-1-(naphthylmethyl)sulfone]: the cytotoxicity in experiment [1], in experiment [2], in experiment [3] and in experiment [4] was 5 to 10% throughout.
In the case of `O=S(=O)(/C=C/c1ccc(Cl)cc1)Cc1cccc2ccccc12` [Example 69, (E)-4-Chlorostyryl-1-(naphthylmethyl)sulfone], the cytotoxicity in experiment [1], in experiment [2], in experiment [3] and in experiment [4] was 5 to 10% throughout.
`O=S(=O)(/C=C/c1ccc(Br)cc1)Cc1cccc2ccccc12` [Example 70, (E)-4-Bromostyryl-1-(naphthylmethyl)sulfone]: the cytotoxicity in experiment [1], in experiment [2], in experiment [3] and in experiment [4] was 5 to 10% each time.
In the case of `O=[N+]([O-])c1ccc(/C=C/S(=O)(=O)Cc2cccc3ccccc23)cc1` [Example 73, (E)-4-Nitrostyryl-1-(naphthylmethyl)sulfone], the cytotoxicity fell in the range of 5 to 10% in experiment [1], 5 to 10% in experiment [2], 10 to 15% in experiment [3] and 5 to 10% in experiment [4].
`O=S(=O)(/C=C/c1c2ccccc2cc2ccccc12)Cc1ccc(F)cc1` [Example 74, (E)-9-Anthraceneethenyl-4-fluorobenzylsulfone]: the cytotoxicity in experiment [1] is 40 to 50%; in experiment [2], 50 to 60%; in experiment [3], > 80%; in experiment [4], 50 to 60%.
`O=S(=O)(/C=C/c1c2ccccc2cc2ccccc12)Cc1ccc(Br)cc1` [Example 76, (E)-9-Anthraceneethenyl-4-bromobenzylsulfone]: the cytotoxicity in experiment [1] lay in the range of 50 to 60%; in experiment [2], 40 to 50%; in experiment [3], 40 to 50%; in experiment [4], 50 to 60%.
